Results as given in patent US10294202B2, “Pyrrolidinones as herbicides” (FMC Corporation, priority 2013, dated 2019).

Experiments:
barnyardgrass [1] = test: Test A pre-/postemergence herbicide test; assay type: in vivo, Echinochloa crus-galli
How it was run: (§1)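 Directed soil spray to seeded pots (preemergence) or spray onto one- to two-leaf seedlings 2–10 cm tall (postemergence); loam/sand substrate throughout. Evaluated visually after about 10 days against untreated plants, 0 = no effect, 100 = complete control.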

giant foxtail = test: Test A pre-/postemergence herbicide test; assay type: in vivo, Setaria faberii
How it was run: as §1

corn [2] = test: Test A pre-/postemergence herbicide test; assay type: in vivo, Zea mays; settings: Postemergence
How it was run: as §1

ducksalad = test: Test B flooded paddy test; assay type: in vivo, Heteranthera limosa; settings: 500 g ai/ha, Flood; scale of 0 to 100 where 0 is no effect and 100 is complete control
How it was run: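 In-water application to pots flooded 3 cm deep, plants at 2-leaf stage. Held in greenhouse 13–15 days at constant flood depth. Scored 0–100 by eye against controls.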

ryegrass, Italian = test: Test C pre-/postemergence herbicide test; assay type: in vivo, Lolium multiflorum
How it was run: (§2)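 Two application timings ran in parallel with identically formulated test chemicals (non-phytotoxic solvent, surfactant included): spray on seeded loam–sand soil, and spray on emerged plants 2 to 18 cm high. Evaluation at 13 to 15 days compared each species with controls, rated from 0 up to 100.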

corn [3] = test: Test C pre-/postemergence herbicide test; assay type: in vivo, Zea mays
How it was run: as §2

lambsquarters = test: Test C pre-/postemergence herbicide test; assay type: in vivo, Chenopodium album
How it was run: as §2

nutsedge, yellow = test: Test C pre-/postemergence herbicide test; assay type: in vivo, Cyperus esculentus
How it was run: as §2

soybean = test: Test C pre-/postemergence herbicide test; assay type: in vivo, Glycine max
How it was run: as §2

barnyardgrass [4] = test: Test C pre-/postemergence herbicide test; assay type: in vivo, Echinochloa crus-galli
How it was run: as §2

waterhemp = test: Test C pre-/postemergence herbicide test; assay type: in vivo, Amaranthus rudis
How it was run: as §2

[5] = Postemergence, 125 g ai/ha, visual rating on 0 to 100 scale (0 no effect, 100 complete control), approx. 10 days
[6] = Postemergence, 500 g ai/ha, 0 to 100 scale (0 no effect, 100 complete control)
[7] = Preemergence, 125 g ai/ha, 0 to 100 scale where 0 is no effect and 100 is complete control
[8] = Preemergence, 500 g ai/ha, visual rating on 0 to 100 scale (0 no effect, 100 complete control)
[9] = 125 g ai/ha, visual rating on 0 to 100 scale (0 no effect, 100 complete control), approx. 10 days
[10] = 500 g ai/ha, 0 to 100 scale (0 no effect, 100 complete control)
[11] = Preemergence, 62 g ai/ha, scale 0 to 100 (0 no effect, 100 complete control)
[12] = Preemergence, 125 g ai/ha, scale 0 to 100
[13] = Preemergence, 31 g ai/ha, scale 0 to 100, 0 is no effect and 100 is complete control
[14] = Preemergence, 125 g ai/ha, scale 0 to 100 (0 no effect, 100 complete control)
[15] = Postemergence, 31 g ai/ha, scale 0 to 100 (0 no effect, 100 complete control)
[16] = Postemergence, 62 g ai/ha, scale 0 (no effect) to 100 (complete control)
[17] = Postemergence, 125 g ai/ha, scale 0 to 100 (0 no effect, 100 complete control)
[18] = Postemergence, 250 g ai/ha, scale 0 to 100 (0 no effect, 100 complete control)

## O=C1NCC(c2cccc(Br)c2)C1C(=O)Nc1ccccc1F (stereo not shown) [Compound 307]
Barnyardgrass [1]; [5]
  Plant response rating, Barnyardgrass: 70
Barnyardgrass [1]; [6]
  Plant response rating, Barnyardgrass: 90
Barnyardgrass [1]; [7]
  Plant response rating, Barnyardgrass: 80
Barnyardgrass [1]; [8]
  Barnyardgrass plant response rating: 90
Giant foxtail; [5]
  Plant response rating, Foxtail, Giant: 70
Giant foxtail; [6]
  Plant response rating, Foxtail, Giant: 80
Giant foxtail; [7]
  Plant response rating, Foxtail, Giant: 80
Giant foxtail; [8]
  Foxtail, Giant plant response rating: 90
Corn [2]; [9]
  Plant response rating, Corn: 0
Corn [2]; [10]
  Plant response rating, Corn: 60
ducksalad
  Plant response rating, Ducksalad: 98
ryegrass, Italian; [11]
  Ryegrass, Italian plant response rating: 0
ryegrass, Italian; [12]
  Plant response rating, Ryegrass, Italian: 5
ryegrass, Italian; Preemergence, 250 g ai/ha
  Plant response rating (scale of 0 to 100), Ryegrass, Italian: 10
Corn [3]; [13]
  Corn plant response rating: 0
Corn [3]; [11]
  Corn plant response rating: 0
Corn [3]; [12]
  Plant response rating, Corn: 40
Corn [3]; Preemergence, 250 g ai/ha
  Plant response rating (scale of 0 to 100), Corn: 40
lambsquarters; [13]
  Lambsquarters plant response rating: 0
lambsquarters; [11]
  Lambsquarters plant response rating: 0
lambsquarters; [12]
  Plant response rating, Lambsquarters: 10
lambsquarters; Preemergence, 250 g ai/ha
  Plant response rating (scale of 0 to 100), Lambsquarters: 85
nutsedge, yellow; [13]
  Nutsedge, Yellow plant response rating: 0
nutsedge, yellow; [11]
  Nutsedge, Yellow plant response rating: 0
nutsedge, yellow; [12]
  Plant response rating, Nutsedge, Yellow: 0
nutsedge, yellow; Preemergence, 250 g ai/ha
  Plant response rating (scale of 0 to 100), Nutsedge, Yellow: 0
soybean; [11]
  Soybean plant response rating: 0
soybean; [12]
  Plant response rating, Soybean: 0
soybean; Preemergence, 250 g ai/ha
  Plant response rating (scale of 0 to 100), Soybean: 0
Barnyardgrass [4]; [13]
  Barnyardgrass plant response rating: 40
Barnyardgrass [4]; [11]
  Barnyardgrass plant response rating: 70
Barnyardgrass [4]; [14]
  Plant response rating, Barnyardgrass: 85
Barnyardgrass [4]; Preemergence, 250 g ai/ha
  Plant response rating (scale of 0 to 100; 0 is no effect, 100 is complete control), Barnyardgrass: 95
waterhemp; [11]
  Waterhemp plant response rating: 0
waterhemp; [12]
  Plant response rating, Waterhemp: 0
waterhemp; Preemergence, 250 g ai/ha
  Plant response rating (scale of 0 to 100), Waterhemp: 0

## O=C1NCC(c2cccc(Br)c2)C1C(=O)Nc1cccc(F)c1F (stereo not shown) [Compound 309]
Barnyardgrass [1]; [5]
  Plant response rating, Barnyardgrass: 80
Barnyardgrass [1]; [6]
  Plant response rating, Barnyardgrass: 90
Barnyardgrass [1]; [7]
  Plant response rating, Barnyardgrass: 80
Barnyardgrass [1]; [8]
  Barnyardgrass plant response rating: 80
Giant foxtail; [5]
  Plant response rating, Foxtail, Giant: 80
Giant foxtail; [6]
  Plant response rating, Foxtail, Giant: 90
Giant foxtail; [7]
  Plant response rating, Foxtail, Giant: 90
Giant foxtail; [8]
  Foxtail, Giant plant response rating: 90
Corn [2]; [9]
  Plant response rating, Corn: 30
Corn [2]; [10]
  Plant response rating, Corn: 80
ducksalad
  Plant response rating, Ducksalad: 100
ryegrass, Italian; [15]
  Plant response rating, Ryegrass, Italian: 0
ryegrass, Italian; [16]
  Plant response rating, Ryegrass, Italian: 0
ryegrass, Italian; [17]
  Plant response rating, Ryegrass, Italian: 0
ryegrass, Italian; [18]
  Plant response rating, Ryegrass, Italian: 5
ryegrass, Italian; [11]
  Ryegrass, Italian plant response rating: 0
ryegrass, Italian; [12]
  Plant response rating, Ryegrass, Italian: 0
ryegrass, Italian; Preemergence, 250 g ai/ha
  Plant response rating (scale of 0 to 100), Ryegrass, Italian: 10
Corn [3]; [15]
  Plant response rating, Corn: 0
Corn [3]; [16]
  Plant response rating, Corn: 0
Corn [3]; [17]
  Plant response rating, Corn: 0
Corn [3]; [18]
  Plant response rating, Corn: 20
Corn [3]; [13]
  Corn plant response rating: 0
Corn [3]; [11]
  Corn plant response rating: 0
Corn [3]; [12]
  Plant response rating, Corn: 65
Corn [3]; Preemergence, 250 g ai/ha
  Plant response rating (scale of 0 to 100), Corn: 70
lambsquarters; [15]
  Plant response rating, Lambsquarters: 10
lambsquarters; [16]
  Plant response rating, Lambsquarters: 65
lambsquarters; [17]
  Plant response rating, Lambsquarters: 65
lambsquarters; [18]
  Plant response rating, Lambsquarters: 70
lambsquarters; [13]
  Lambsquarters plant response rating: 0
lambsquarters; [11]
  Lambsquarters plant response rating: 0
lambsquarters; [12]
  Plant response rating, Lambsquarters: 30
lambsquarters; Preemergence, 250 g ai/ha
  Plant response rating (scale of 0 to 100), Lambsquarters: 50
nutsedge, yellow; [15]
  Plant response rating, Nutsedge, Yellow: 0
nutsedge, yellow; [16]
  Plant response rating, Nutsedge, Yellow: 5
nutsedge, yellow; [17]
  Plant response rating, Nutsedge, Yellow: 30
nutsedge, yellow; [18]
  Plant response rating, Nutsedge, Yellow: 0
nutsedge, yellow; [13]
  Nutsedge, Yellow plant response rating: 0
nutsedge, yellow; [11]
  Nutsedge, Yellow plant response rating: 0
nutsedge, yellow; [12]
  Plant response rating, Nutsedge, Yellow: 0
nutsedge, yellow; Preemergence, 250 g ai/ha
  Plant response rating (scale of 0 to 100), Nutsedge, Yellow: 0
soybean; [15]
  Plant response rating, Soybean: 0
soybean; [16]
  Plant response rating, Soybean: 0
soybean; [17]
  Plant response rating, Soybean: 15
soybean; [18]
  Plant response rating, Soybean: 0
soybean; [11]
  Soybean plant response rating: 0
soybean; [12]
  Plant response rating, Soybean: 0
soybean; Preemergence, 250 g ai/ha
  Plant response rating (scale of 0 to 100), Soybean: 0
Barnyardgrass [4]; [15]
  Plant response rating, Barnyardgrass: 0
Barnyardgrass [4]; [16]
  Plant response rating, Barnyardgrass: 15
Barnyardgrass [4]; [17]
  Plant response rating, Barnyardgrass: 55
Barnyardgrass [4]; [18]
  Plant response rating, Barnyardgrass: 60
Barnyardgrass [4]; [13]
  Barnyardgrass plant response rating: 60
Barnyardgrass [4]; [11]
  Barnyardgrass plant response rating: 90
Barnyardgrass [4]; [14]
  Plant response rating, Barnyardgrass: 90
Barnyardgrass [4]; Preemergence, 250 g ai/ha
  Plant response rating (scale of 0 to 100; 0 is no effect, 100 is complete control), Barnyardgrass: 95
waterhemp; [15]
  Plant response rating, Waterhemp: 0
waterhemp; [16]
  Plant response rating, Waterhemp: 5
waterhemp; [17]
  Plant response rating, Waterhemp: 10
waterhemp; [18]
  Plant response rating, Waterhemp: 10
waterhemp; [11]
  Waterhemp plant response rating: 0
waterhemp; [12]
  Plant response rating, Waterhemp: 30
waterhemp; Preemergence, 250 g ai/ha
  Plant response rating (scale of 0 to 100), Waterhemp: 40
